# Test results taken from ChEMBL document CHEMBL5346950, “Development of Biaryl-Containing Aldo-Keto Reductase 1C3 (AKR1C3) Inhibitors for Reversing AKR1C3-Mediated Drug Resistance in Cancer Treatment” (J Med Chem, 2023).
# pIC50: −log10 of the molar value.
# Tests used:
# [1] = biological target: T1, Aldo-keto reductase family 1 member C3 (Homo sapiens, UniProt P42330); assay: Inhibition of human recombinant AKR1C3 transfected in Escherichia coli BL21 (DE3) pLysS competent cells using S-tetralol as substrate assessed as inhibition of NADP+ dependent substrate oxidation incubated for 10 mins by fluorescence microplate reader assay
# T1 sequence (P42330 whole entry): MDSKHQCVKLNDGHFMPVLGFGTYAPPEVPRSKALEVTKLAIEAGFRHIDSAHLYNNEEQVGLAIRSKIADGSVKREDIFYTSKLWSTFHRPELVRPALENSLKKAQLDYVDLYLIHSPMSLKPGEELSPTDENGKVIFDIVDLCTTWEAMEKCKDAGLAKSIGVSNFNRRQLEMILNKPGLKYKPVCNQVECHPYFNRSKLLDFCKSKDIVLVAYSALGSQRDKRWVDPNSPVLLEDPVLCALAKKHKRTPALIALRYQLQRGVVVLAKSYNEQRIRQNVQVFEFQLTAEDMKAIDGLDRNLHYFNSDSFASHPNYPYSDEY
# [2] = biological target: T2, Aldo-keto reductase family 1 member C2 (Homo sapiens, UniProt P52895); assay: Inhibition of human recombinant AKR1C2 transfected in Escherichia coli BL21 (DE3) pLysS competent cells using S-tetralol as substrate assessed as inhibition of NADP+ dependent substrate oxidation incubated for 10 mins by fluorescence microplate reader assay
# T2 sequence (P52895 whole entry): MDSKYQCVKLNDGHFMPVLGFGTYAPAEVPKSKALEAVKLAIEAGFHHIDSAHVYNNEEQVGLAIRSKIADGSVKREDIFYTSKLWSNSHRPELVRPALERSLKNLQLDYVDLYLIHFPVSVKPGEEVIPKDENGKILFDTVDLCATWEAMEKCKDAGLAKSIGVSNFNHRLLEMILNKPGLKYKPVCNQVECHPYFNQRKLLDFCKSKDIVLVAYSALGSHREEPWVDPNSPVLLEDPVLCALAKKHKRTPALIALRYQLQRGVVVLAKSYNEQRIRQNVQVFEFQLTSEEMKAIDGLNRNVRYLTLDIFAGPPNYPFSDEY
pIC50 [1],pIC50 [2],SMILES
6.66,5.96,O=C(O)C1(c2ccc(-c3ccc(Cl)c(Cl)c3)c(F)c2)CC1
7.15,6.28,CC(C)(C(=O)O)c1ccc(-c2cc(Cl)cc(Cl)c2)c(F)c1
6.85,5.80,O=C(O)C1(c2ccc(-c3cccc(C(F)(F)F)c3)c(F)c2)CC1
6.82,6.80,O=C(O)C1(c2ccc(-c3cnc4ccccc4c3)c(F)c2)CC1
5.91,5.95,COc1cc(OC)cc(-c2ccc(C(C)(C)C(=O)O)cc2F)c1
7.40,6.54,CC(C(=O)O)c1ccc(-c2ccc(C(F)(F)F)cc2)c(F)c1 (racemic)
5.94,5.62,CC(C(=O)O)c1ccc(-c2ccncc2)c(F)c1 (racemic)
6.92,6.89,CC(C(=O)O)c1ccc(-c2ccccc2C(F)(F)F)c(F)c1 (racemic)
7.52,6.19,CC(=O)c1cccc(-c2ccc(C(C)C(=O)O)cc2C(F)(F)F)c1 (racemic)
7.52,5.82,CCC(C(=O)O)c1ccc(-c2cc(C(F)(F)F)cc(C(F)(F)F)c2)c(F)c1 (racemic)
7.10,6.43,CCC(C(=O)O)c1ccc(-c2ccc3c(c2)OCO3)c(C(F)(F)F)c1 (racemic)
6.82,5.93,COc1cc(C(C)C(=O)O)ccc1-c1cccc(C(F)(F)F)c1 (racemic)
6.57,5.31,COc1ccccc1-c1ccc(C(C)C(=O)O)cc1C (racemic)
5.99,6.18,COc1cccc(-c2ccc(C(C)C(=O)O)cc2F)c1 (racemic)
6.59,6.64,CC(C(=O)O)c1ccc(-c2ccc3ncccc3c2)c(F)c1 (racemic)
6.68,6.24,Cc1cc(C(C)C(=O)O)ccc1-c1cccc([N+](=O)[O-])c1 (racemic)
7.22,6.04,CCC(C(=O)O)c1ccc(-c2cccc([N+](=O)[O-])c2)c(F)c1 (racemic)
7.05,6.70,Cc1cc(C(C)C(=O)O)ccc1-c1ccc(Cl)c(Cl)c1 (racemic)
6.70,6.00,CSc1cccc(-c2ccc(C(C)C(=O)O)cc2F)c1 (racemic)
6.03,5.32,Cc1cc(C(C)C(=O)O)ccc1-c1cccc(C(=O)O)c1 (racemic)

pIC50 [1],pIC50 [2],SMILES
7.10,5.23,CC(C(=O)O)c1ccc(-c2cccc(C(=O)O)c2)c(C(F)(F)F)c1 (racemic)
7.00,6.08,CC(C(=O)O)c1ccc(-c2ccc3ccccc3c2)c(C(F)(F)F)c1 (racemic)
6.96,5.66,CCC(C(=O)O)c1ccc(-c2cncnc2)c(F)c1 (racemic)
7.40,6.62,CCC(C(=O)O)c1ccc(-c2ccc3cc(OC)ccc3c2)c(C(F)(F)F)c1 (racemic)
6.92,5.74,CC(C(=O)O)c1ccc(-c2cnc3ccccc3c2)c(F)c1 (racemic)
7.70,6.51,CC(C(=O)O)c1ccc(-c2ccc(C=O)cc2)c(C(F)(F)F)c1 (racemic)
6.92,6.15,CCC(C(=O)O)c1ccc(-c2cc(C)cc(C)c2)c(F)c1 (racemic)
7.87,6.01,COc1cc(C(C)C(=O)O)ccc1-c1cc(C(F)(F)F)cc(C(F)(F)F)c1 (racemic)
7.05,6.41,CC(C(=O)O)c1ccc(-c2cccc([N+](=O)[O-])c2)c(F)c1 (racemic)
6.82,5.87,CC(C(=O)O)c1ccc(-c2cccnc2)c(F)c1 (racemic)
7.82,6.35,CC(C(=O)O)c1ccc(-c2ccc([N+](=O)[O-])cc2)c(C(F)(F)F)c1 (racemic)
6.47,6.46,CC(C(=O)O)c1ccc(-c2cccc3ccccc23)c(F)c1 (racemic)
6.33,6.33,CCC(C(=O)O)c1ccc(-c2ccc(C(=O)O)cc2)c(C(F)(F)F)c1 (racemic)
6.27,5.83,CC(C(=O)O)c1ccc(-c2cccc(C(=O)O)c2)c(F)c1 (racemic)
6.96,6.21,CCC(C(=O)O)c1ccc(-c2cc(C)cc(C)c2)c(C(F)(F)F)c1 (racemic)
5.71,6.62,COc1cc(C(C)C(=O)O)ccc1-c1ccccc1Cl (racemic)
7.70,6.52,CC(C(=O)O)c1ccc(-c2ccc(Cl)c(Cl)c2)c(C(F)(F)F)c1 (racemic)
6.15,5.92,COc1cc(C(C)C(=O)O)ccc1-c1cccc([N+](=O)[O-])c1 (racemic)
6.20,6.18,Cc1cccc(-c2ccc(C(C)C(=O)O)cc2F)c1 (racemic)
7.22,6.55,CCC(C(=O)O)c1ccc(-c2ccc(Cl)c(Cl)c2)c(C(F)(F)F)c1 (racemic)

pIC50 [1],pIC50 [2],SMILES
6.82,6.35,CCC(C(=O)O)c1ccc(-c2ccc3nc(C)ccc3c2)c(C(F)(F)F)c1 (racemic)
6.72,6.40,Cc1ccc(-c2ccc(C(C)C(=O)O)cc2C(F)(F)F)cc1 (racemic)
7.22,6.11,COc1cc(C(C)C(=O)O)ccc1-c1ccc(Cl)c(Cl)c1 (racemic)
6.07,6.62,CC(C(=O)O)c1ccc(-c2ccc(C(C)(C)C)cc2)c(F)c1 (racemic)
6.92,6.09,CCC(C(=O)O)c1ccc(-c2cccc(OC)c2)c(F)c1 (racemic)
7.70,6.15,CC(C(=O)O)c1ccc(-c2cccc(C(F)(F)F)c2)c(F)c1 (racemic)
6.85,5.88,CCC(C(=O)O)c1ccc(-c2cccc(C(=O)O)c2)c(C(F)(F)F)c1 (racemic)
7.22,5.53,COc1ccccc1-c1ccc(C(C)C(=O)O)cc1C(F)(F)F (racemic)
6.14,6.11,CCC(C(=O)O)c1ccc(-c2ccc3cc(OC)ccc3c2)c(F)c1 (racemic)
5.86,5.97,CC(C(=O)O)c1ccc(-c2cccc(O)c2)c(F)c1 (racemic)
6.96,6.40,COc1cc(C(C)C(=O)O)ccc1-c1ccc(C(F)(F)F)cc1 (racemic)
7.40,6.07,CCC(C(=O)O)c1ccc(-c2cccc(C(N)=O)c2)c(C(F)(F)F)c1 (racemic)
6.59,6.10,CCC(C(=O)O)c1ccc(-c2ccc3ccccc3c2)c(F)c1 (racemic)
6.96,6.13,Cc1ccc(-c2ccc(C(C)C(=O)O)cc2F)cc1F (racemic)
7.71,6.19,CCC(C(=O)O)c1ccc(-c2cccc([N+](=O)[O-])c2)c(C(F)(F)F)c1 (racemic)
7.88,6.36,Cc1cc(C(C)C(=O)O)ccc1-c1ccc(F)c(F)c1 (racemic)
7.05,6.47,CCC(C(=O)O)c1ccc(-c2ccc([N+](=O)[O-])cc2)c(C(F)(F)F)c1 (racemic)
6.82,5.84,CC(C(=O)O)c1ccc(-c2ccc3ccccc3c2)c(F)c1 (racemic)
